The IC50 is the concentration that inhibits the measured activity by half. High values mean lower potency, low ones higher potency.

The source of these data is patent US20110184011A1, “Compounds” (SELCIA LIMITED, priority 2008, published 2011).

Data set [1] has as its system IL-1β stimulated IL-8 secretion in human umbilical vein endothelial cells (HUVECs). Nature of the data set: IL-1β stimulated IL-8 secretion assay in HUVEC cells (ELISA). The format is cell-based. Conditions: 0.5 ng/ml IL-1β; for inhibition at 1 µM: 1 μM compound, read-out: % Inhib at 1 μM; for inhibition at 1 µM / inhibition at 10 µM: IL-8 secretion; for inhibition at 10 µM: 10 μM compound, read-out: % Inhib at 10 μM; for IC50: 24 h, IL-8 ELISA. The protocol: Anti-inflammatory screening was established in human umbilical vein endothelial cells (HUVECs) to screen the test compounds for their ability to inhibit IL-1β stimulated IL-8 secretion from these cells. The level of secreted IL-8 in the HUVEC media was detected using a Quantikine™ Sandwich Enzyme-Linked Immunosorbent Assay (ELISA) from R&D Systems.
Cells and media were obtained from Cascade Biologics™ via Invitrogen. HUVECs were seeded in sterile 96-well tissue culture treated plates (0.1 ml per well, containing 2,400 cells; 8000 cells/cm^2). The seeded plates were incubated in a humidified incubator at 37 C/5% CO2. After 24 h, the media was replaced with fresh media (80 μl). The test compounds were serially diluted from 10 mM DMSO stocks with media to obtain dilutions 10× the final concentration. The compounds (10 μl) were added to the plates 30 min prior to the addition of 10 μl of 5 ng/ml stimulant IL-1β (final concentration 0.5 ng/ml). After incubating for 24 h, the plates were centrifuged at 200×g for 5 min (room temperature) and the media from each well transferred to a 96-well storage plate. Basal samples were assayed neat, but media from IL-1β stimulated cells was diluted in the calibrator diluent accompanying the IL-8 ELISA kit. The ELISA was performed according to the manufacturer's instructions.
A dose of 0.5 ng/ml IL-1β was chosen as a submaximal dose to observe the inhibition of IL-8 secretion with the test compounds.
Test compounds were initially screened at 10^−5M and 10^−6M for their ability to inhibit IL-1β stimulated IL-8 secretion (Table 1).

Data set [2] deals with IL-1β stimulated MCP-1 secretion in HUVECs. Nature of the data set: IL-1β stimulated MCP-1 secretion in HUVECs (ELISA). The format is cell-based, human. The conditions noted are these: increasing concentration of compound. As to the method:
(§1) The HUVEC IL1β secretion assay was performed using a 24-well plate format similar to that described for IL-8 secretion above (0.5 ml per well containing 16,000 cells; 8000 cells/cm^2). Media was collected from untreated cells (basal) and cells treated with either 0.5 ng/ml IL-1β only, 10^−5M compound (2) only or IL-1β stimulated plus compound (2). Media from 2 wells were pooled for each condition.
(§2) Using the results of the protein array, the effect of compound (2) on the secretion of five other cytokines stimulated by IL-1β was also measured in HUVECs. These included: GROα, MCP-1, GM-CSF, sICAM-1 and IL-6. The HUVECs were seeded in sterile 24-well tissue culture treated plates (as described above). The cells were treated with increasing doses of compound (2) prior to stimulating with IL-1β as described above. All cytokines were measured using the appropriate Quantikine® Sandwich ELISA from R&D Systems according to the manufacturer's instructions.

Data set [3] has as its system IL-1β stimulated GROα secretion in HUVECs. The data set is described as follows: IL-1β stimulated GROα secretion in HUVECs (ELISA). The format is cell-based, human. The conditions noted are these: increasing concentration of compound. The protocol: as §1, §2
For orientation: ELISA stands for enzyme-linked immunosorbent assay.

In data set [4] the test system is IL-1β stimulated GM-CSF secretion in HUVECs. Nature of the data set: IL-1β stimulated GM-CSF secretion in HUVECs (ELISA). It counts as cell-based, human. Conditions: increasing doses of compound. As to the method: as §1, §2
Data set [5] relates to IL-1β stimulated IL-6 secretion in HUVECs. The data set is described as follows: IL-1β stimulated IL-6 secretion in HUVECs (ELISA). It counts as cell-based, human. Conditions: increasing doses of compound. As to the method: as §1, §2
The test system of data set [6] is BALB/c mice, oxazolone-induced ear edema. Nature of the data set: Mouse allergic contact dermatitis model induced by oxazolone, topical application, ear swelling. It counts as in vivo. Conditions: for effect on inflammation in mouse allergic contact dermatitis model: topical application, 0.3-3 mg/ear x2, result in words. The protocol: BALB/c derived male mice, weighing 23±2 g were housed in individually ventilated cages racks (IVC Racks, 36 Mini Isolator systems) throughout the experiment. Five mice per group were kept in a cage (in cm, 26.7 length×20.7 width×14.0 height) and maintained under controlled temperature (21-23° C.) and humidity (50%-70%) with 12-hour light/dark cycles. The animals were given free access to sterilized lab chow and reverse osmosis (RO) water ad libitum. All aspects of this work, i.e. housing, experimentation and disposal of animals, are performed in general accordance with the Guide for the Care and Use of Laboratory Animals (National Academy Press, Washington, D.C., 1996).
Compound (2) was prepared as 150, 50 and 15 mg/ml in vehicle, acetone:ethanol/1:1. The preshaven abdomens of five groups of 5 BALB/c test mice were sensitized by application of 100 μL of 1.5% oxazolone solution dissolved in acetone. Seven days after the initial sensitization, test substance (0.3, 1 and 3 mg in 20 μl/ear) and vehicle (acetone:ethanol/1:1, 20 μL/ear) were each administered topically to the anterior and posterior surfaces of the right ear 30 minutes before and 15 minutes after challenge by the second application of oxazolone (1% in acetone, 20 μL/ear). As a positive control, dexamethasone (0.1 mg/ear) was administered topically using the same treatment regime as the test compound. Twenty-four hours after the second application of oxazolone, the ear thickness of each mouse was measured with a Dyer model micrometer gauge. Ear edema was calculated by subtracting the thickness of the left ear (normal control) from the right ear (treated ear). Percent inhibition was calculated according to the formula: [(Ic−It)/Ic]×100%, where Ic and It refer to increase of ear thickness (mm) in control and treated mice, respectively. A 30 percent or more (30%) inhibition in ear swelling relative to the vehicle control is considered significant and indicates possible anti-inflammatory activity.

The nature of data set [7]: Solubility of the topical formulation in vehicle acetone:ethanol/1:1. The conditions noted are these: 150, 50 and 15 mg/ml in acetone:ethanol/1:1. It counts as physicochemical.
Data set [8] has as its system IL-1β stimulated IL-8 secretion in human umbilical vein endothelial cells (HUVECs). Nature of the data set: IL-1β stimulated IL-8 secretion assay in HUVEC cells (ELISA). It counts as cell-based. The conditions noted are these: 24-well format, increasing doses.

Regarding `NC(=O)c1cc(-c2cccnc2)n2c1CCCC2` [Compound 1, 3-pyridin-3-yl-5,6,7,8-tetrahydro-indolizine-1-carboxamide], in data set [1], the inhibition at 1 µM was 31.8% and the inhibition at 10 µM came out at 34.7%.
`NC(=O)c1c(Cl)c(-c2cccnc2)n2c1CCCC2` [Compound 2, 2-Chloro-3-pyridin-3-yl-5,6,7,8-tetrahydro-indolizine-1-carboxamide]: half-maximal inhibition in data set [1] (IC50) required 350 nM. For the same compound, the inhibition at 1 µM in data set [1] was 49.4%. Besides, the inhibition at 10 µM in data set [1] is 59.5%. Also, in data set [2], the “effect on IL-1β stimulated MCP-1” value is listed as “little effect”. Besides, in data set [3], the “reduction of IL-1β stimulated GROα levels” value was about 25%. Besides, in data set [4], the “effect on IL-1β stimulated GM-CSF levels” value was “dose dependently decreased”. In addition, the “effect on IL-1β stimulated IL-6 levels” value in data set [5] was “increased IL-6 levels further”. For the same compound, the “inhibition of ear swelling relative to vehicle control” value in data set [6] (0.3 mg/ear x2 topical, 30 min before and 15 min after oxazolone challenge, measured at 24 h) turned out to be 25%; in data set [6] (1 mg/ear x2 topical, 30 min before and 15 min after oxazolone challenge, measured at 24 h), 29%; in data set [6] (3 mg/ear x2 topical, 30 min before and 15 min after oxazolone challenge, measured at 24 h), 40%. The figures for the “effect on inflammation in mouse allergic contact dermatitis model” value in data set [6] (listed as compound 2) and in data set [6] (listed as compound (2)) were “not as potent as dexamethasone” and “dose dependently inhibited inflammation”, respectively. Besides, the solubility of formulation result in data set [7] is “not completely soluble”. Further, in data set [8], the “effect on IL-1β stimulated IL-8 secretion” value is “inhibited IL-8 and GM-CSF to a similar extent”.
`Cc1ccncc1-c1cc(C#N)c2n1CCCC2` [Compound 3, 3-(4-Methyl-pyridin-3-yl)-5,6,7,8-tetrahydro-indolizine-1-carbonitrile]: in data set [1], the inhibition at 1 µM came to 34.4% and the inhibition at 10 µM was 35%.
With `Cc1ccncc1-c1cc(C(N)=O)c2n1CCCC2` [Compound 4, 3-(4-Methyl-pyridin-3-yl)-5,6,7,8-tetrahydro-indolizine-1-carboxylic acid amide], in data set [1], the inhibition at 1 µM worked out at 15.9% and the inhibition at 10 µM is 30.8%.
`NC(=O)c1c(Cl)c(-c2cccnc2)n2c1C(O)CCC2` (stereo not shown) [Compound 5, 2-Chloro-8-hydroxy-3-pyridin-3-yl-5,6,7,8-tetrahydro-indolizine-1-carboxylic acid amide]: in data set [1], the IC50 came to 760 nM, the inhibition at 1 µM was 29% and the inhibition at 10 µM was 52.4%.
As to `N#Cc1c(Cl)c(-c2cccnc2)n2c1C(O)CCC2` (stereo not shown) [Compound 6, 2-Chloro-8-hydroxy-3-pyridin-3-yl-5,6,7,8-tetrahydro-indolizine-1-carbonitrile], in data set [1], the inhibition at 1 µM was 52.2% and the inhibition at 10 µM came to 21.8%.
The like results for `COC1CCCn2c(-c3cccnc3)c(Cl)c(C(N)=O)c21` (stereo not shown) [Compound 7, 2-Chloro-8-methoxy-3-pyridin-3-yl-5,6,7,8-tetrahydro-indolizine-1-carboxylic acid amide] were, in that order, 1.4% and 32.1%.
Regarding `Cc1ccncc1-c1c(Cl)c(C#N)c2n1CCCC2` [Compound 8, 2-Chloro-3-(4-Methyl-pyridin-3-yl)-5,6,7,8-tetrahydro-indolizine-1-carbonitrile], in data set [1], the inhibition at 1 µM was determined as 5.5% and the inhibition at 10 µM was determined as 39.6%.
On to `Cc1ccncc1-c1c(Cl)c(C(N)=O)c2n1CCCC2` [Compound 9, 2-Chloro-3-(4-methyl-pyridin-3-yl)-5,6,7,8-tetrahydro-indolizine-1-carboxylic acid amide], for which, in data set [1], the IC50 worked out at 510 nM, the inhibition at 1 µM is 42.2% and the inhibition at 10 µM came to 49.6%.
Take `N#Cc1c(Cl)c(-c2cccnc2)n2c1C(=O)C(Cl)(Cl)CC2` [Compound 10, 2,7,7-Trichloro-8-oxo-3-pyridin-3-yl-5,6,7,8-tetrahydro-indolizine-1-carbonitrile]: in data set [1], the inhibition at 1 µM stood at 18.8% and the inhibition at 10 µM was 35.7%.
For `NC(=O)c1c(Cl)c(-c2cccnc2)n2c1C(=O)CCC2` [Compound 11, 2-Chloro-8-oxo-3-pyridin-3-yl-5,6,7,8-tetrahydro-indolizine-1-carboxylic acid amide] the same measures were 32.9% and 31.7%.
Regarding `NC(=O)c1c(Cl)c(-c2cccnc2)n2c1C=CCC2` [Compound 12, 2-Chloro-3-pyridin-3-yl-5,6-dihydro-indolizine-1-carboxylic acid amide], in data set [1], the midpoint of inhibition, the IC50, lay at 1600 nM; the inhibition at 1 µM stood at 22.7%; the inhibition at 10 µM was determined as 52.7%.
For the compound `C[C@@H]1C[C@H]2[C@@H]3CCC4=CC(=O)C=C[C@]4(C)[C@@]3(F)[C@@H](O)C[C@]2(C)[C@@]1(O)C(=O)CO` [dexamethasone, reference compound], the “inhibition of ear swelling relative to vehicle control” value in data set [6] (0.1 mg/ear topical, same regime, positive control) was 72%.
